Results taken from patent publication US4778790A, “Perhydrothiazepine and perhydroazepine derivatives and their therapeutic use” (Sankyo Company Limited, priority 1986, dated 1988).
Where a name gives a salt, the structure may show the parent alone.

Target: T1, ACE extracted from rabbit lungs (Oryctolagus cuniculus, UniProt P12822)
T1 construct: ACE extracted from rabbit lungs; from tissue; host or cells: rabbit lung
T1 sequence (P12822 34-1310): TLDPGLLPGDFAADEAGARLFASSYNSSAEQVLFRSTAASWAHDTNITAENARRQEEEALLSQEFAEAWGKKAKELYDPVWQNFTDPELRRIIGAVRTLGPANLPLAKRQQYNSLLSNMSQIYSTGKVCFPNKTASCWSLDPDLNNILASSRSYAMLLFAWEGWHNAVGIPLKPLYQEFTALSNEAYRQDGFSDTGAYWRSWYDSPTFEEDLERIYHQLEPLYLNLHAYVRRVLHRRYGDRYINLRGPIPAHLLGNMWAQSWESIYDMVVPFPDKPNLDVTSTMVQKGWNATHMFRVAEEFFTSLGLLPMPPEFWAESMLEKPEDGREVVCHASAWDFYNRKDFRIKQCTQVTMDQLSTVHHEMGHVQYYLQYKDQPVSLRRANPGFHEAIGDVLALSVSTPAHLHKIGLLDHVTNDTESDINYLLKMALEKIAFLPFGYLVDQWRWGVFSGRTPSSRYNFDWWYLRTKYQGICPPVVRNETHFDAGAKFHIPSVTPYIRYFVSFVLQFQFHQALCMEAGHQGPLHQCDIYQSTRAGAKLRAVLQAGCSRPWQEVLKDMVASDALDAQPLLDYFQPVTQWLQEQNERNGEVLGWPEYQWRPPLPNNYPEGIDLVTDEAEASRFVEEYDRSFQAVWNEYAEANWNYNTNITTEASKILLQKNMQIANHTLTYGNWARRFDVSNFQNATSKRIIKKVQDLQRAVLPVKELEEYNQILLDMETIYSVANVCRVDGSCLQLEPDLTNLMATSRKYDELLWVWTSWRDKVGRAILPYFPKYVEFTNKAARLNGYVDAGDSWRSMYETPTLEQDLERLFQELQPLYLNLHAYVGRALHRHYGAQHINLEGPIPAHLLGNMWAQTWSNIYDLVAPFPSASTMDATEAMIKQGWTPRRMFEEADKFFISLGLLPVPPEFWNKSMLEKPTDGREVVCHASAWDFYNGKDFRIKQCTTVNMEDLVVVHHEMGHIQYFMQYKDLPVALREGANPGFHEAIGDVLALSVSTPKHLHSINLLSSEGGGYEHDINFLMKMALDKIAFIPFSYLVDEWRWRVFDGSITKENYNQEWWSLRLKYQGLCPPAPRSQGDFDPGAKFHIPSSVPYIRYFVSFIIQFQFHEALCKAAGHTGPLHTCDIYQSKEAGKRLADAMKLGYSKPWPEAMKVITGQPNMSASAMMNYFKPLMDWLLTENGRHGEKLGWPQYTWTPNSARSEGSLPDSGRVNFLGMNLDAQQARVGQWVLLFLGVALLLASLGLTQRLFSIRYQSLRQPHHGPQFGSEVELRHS
Assay: in vitro ACE inhibition (hippurylhistidylleucine substrate, procedure of Cushman et al.)
Assay type: biochemical
Conditions: rabbit lung ACE, borate buffer with NaCl, pH 8.3, 37° C., 30 minutes, read-out: IC50 (concentration required to inhibit the activity of ACE by 50% in vitro)
Source text: As noted above, the compounds of the present invention have the ability to inhibit the activity of ACE, the enzyme which converts angiotensin I to angiotensin II and also inactivates bradykinin. The physiological activity of the compounds of the invention can be evaluated by determining the concentration of the test compound required to inhibit the activity of ACE by 50% in vitro (IC50), for example by the procedure of D. W. Cushman et al. [Biochemical Pharmacology, 20, 1637 (1971)]. Specifically, solutions of ACE extracted from rabbit lungs and, as substrate, hippurylhistidylleucine, to which had been added the test compound at various concentrations, were added to a borate buffer solution containing sodium chloride, and the pH was adjusted to a value of 8.3. The enzymatic reaction was allowed to proceed at 37° C. for 30 minutes, after which time the reaction was terminated by adding 1N aqueous hydrochloric acid. […] The residual hippuric acid was dissolved in water. The amount of hippuric acid in the resulting aqueous solution was determined by the absorbency to ultraviolet radiation at 228 nm. The resulting values were then plotted to form a curve indicating the relationship between the amount of hippuric acid formed and the concentration of the test compound. The IC50 value can be obtained by reading on this curve the concentration of the test compound which reduces the amount of hippuric acid formed to one half of that formed when no test compound is present.

| SMILES | IC50 |
| --- | --- |
| NCCCCCCCC(NC1CCC(c2ccccc2)CN(CC(=O)O)C1=O)C(=O)O [E, rel-α-{3(S)-[8-Amino-1(S)-carboxyoctylamino]-2-oxo-6(R)-phenylperhydrozepin-1-yl}acetic acid] | 4.1 nM |
| NCCCC[C@H](N[C@H]1CS[C@H](c2cccs2)CN(CC(=O)O)C1=O)C(=O)O [A, α-{6(R)-[5-Amino-1(S)-carboxypentylamino]-5-oxo-2(S)-(2-thienyl)perhydro-1,4-thiazepin-4-yl}acetic acid dihydrochloride] | 3.3 nM |
| O=C(O)CN1C[C@@H](c2cccs2)SC[C@H](N[C@@H](CCCCC2CCNCC2)C(=O)O)C1=O [F, α-{6(R)-[1(S)-Carboxy-5-(4-piperidyl)pentylamino]-5-oxo-2(S)-(2-thienyl)perhydro-1,4-thiazepin-4-yl}acetic acid] | 1.6 nM |
| NCCCCCCC[C@H](N[C@H]1CS[C@H](c2cccs2)CN(CC(=O)O)C1=O)C(=O)O [D] | 1.6 nM |

Now from value to compound:

| IC50 | SMILES |
| --- | --- |
| 2 nM | NCCCCCC[C@H](N[C@H]1CS[C@H](c2cccs2)CN(CC(=O)O)C1=O)C(=O)O [B, α-{6(R)-[7-Amino-1(S)-carboxyheptylamino]-5-oxo-2(S)-(2-thienyl)perhydro-1,4-thiazepin-4-yl}acetic acid] |
| 3.1 nM | NCCCCCCC(NC1CSC(c2ccccc2)CN(CC(=O)O)C1=O)C(=O)O [C, rel-α-}6(R)-[7-Amino-1(S)-carboxyheptylamino]-5-oxo-2(R)-phenylperhydro-1,4-thiazepin-4-yl}acetic acid] |
| 3.7 nM | O=C(O)CN1C[C@@H](c2ccccc2)CC[C@H](N[C@@H](CCCCC2CCNCC2)C(=O)O)C1=O (relative stereo) [G, rel-α-{3(S)-[1(S)-Carboxy-5-(4-piperidyl)pentylamino]-2-oxo-6(R)-phenylperhydroazepin-1-yl}acetic acid] |
